# “And” between values parts separate entries of the source, which are not always exact repeats. Equal values may be shown once.
# Columns and labels:
# [1] = primates, for 11 weeks; cited from earlier work
# [2] = test system: stored human platelets in thrombocytopenic CD-1 outbred mice; test: Platelet storage vs platelet function in a mouse model of thrombocytopenia (tail vein bleeding, blotter weight); type: in vivo; conditions: for Weight of blood after tail vein cut, single animals: 1% PEG-400 in PBS, platelets stored at room temp.
# Procedure: Fresh human platelets were obtained from the blood bank. These were pooled, mixed and divided twice to give 4 (new) platelet bags with 65 ml (+/−5 ml) in each. Next sterile PBS/PEG mixtures were made by adding filter sterilized PEG-400 (30% in PBS) serially diluting 1:4. (14 ml PBS+6 ml of PEG400=30% PEG, serially 1:4 diluted with PBS to give 7.5% PEG400, and 1.9% PEG400). Then, 10 ml of PBS or PBS/PEG was added into each platelet bag as follows: 10 ml PBS is 0 control=A; 10 ml of 1.9 is 0.25% peg final in platelets (a low dose tolerated by whole animal see below)=B; 10 ml of 7.5% gives 1% PEG-400 final (the max PEG400 dose tolerated by whole animal see below), =C; 10 ml of 30% gives 4% about 4 times the max dose tolerated in rhesus monkeys. Units were held at room temp 70 cycles/min, 1 inch stroke). The platelet units were confirmed to be negative for bacterial growth using 3 ml the platelet suspensions in Bactec blood culture bottles at 72 hr.
# CD-1 outbred mice were obtained from Harlan Laboratories. All animals were pretreated with a 0.5 ml IP dose of 185 ug/mouse of filter sterilized fresh acetylsalicylic acid (aspirin) in PBS buffer. Fresh aspirin was used. Salicylate is the active metabolite responsible for most anti-inflammatory and analgesic effects; however, acetylsalicylate is the active moiety for the antiplatelet-aggregation effect and is rapidly hydrolyzed in water. On the following day all mice were given 3 U (heparin equivalents)/animal Lovenox (Enoxaparin Sodium Injection). After a 2 hr period for Lovenox to take full effect, the animals were given 100 ul platelets by IV tail vein injection, the platelets were allowed to circulate […] and the tail vein cut 1 cm from the tip with a new scapula for each animal. Bleeding was measured by collecting drops of blood for exactly 5 min on pre-weighed blotter paper Whatmen-40. The blotters were then weighed and these weights were compared using unpaired t test statistics. Platelets having an excessive amount of RBC in the units were sedimented under gravity in a 50 ml tube for 30 min and only the top 5 ml was harvested into a second 50 ml tube used for injection.)
# Briefly, the animal model experiments were performed as follows. Fresh human platelets were obtained from a blood bank, consisting of 3 ABO ‘O’ units and 2 ABO ‘A’ units. These were pooled, mixed and divided twice to give 4 (new) platelet bags with 75 ml (+/−5 ml) in each. Next sterile PBS/PEG mixtures were made by adding filter sterilized PEG-400 (30% in PBS) serially diluting 1:4. (14 ml PBS+6 ml of PEG=30% PEG, serial ¼ diluted with PBS to give 7.5% PEG, and 1.9% PEG400). 10 ml of PBS or PBS/PEG was then added to each platelet bag as follows. […] Units were held at room temp 140 cycles/min, 0.5 inch stroke). The platelet units were confirmed as negative for bacterial growth using 3 ml in Bactec blood culture bottles at 72 hr.
# CD-1 outbred mice were obtained from Harlan Laboratories. All animals were pretreated with a 0.5 ml IP dose of 185 μg/mouse of filter sterilized fresh acetylsalicylic acid in PBS buffer. On the following day all mice were given 3 U (heparin equivalents)/animal Lovenox. (Note: Aspirin was fresh. Salicylate is the active metabolite responsible for most anti-inflammatory and analgesic effects; however, acetylsalicylate is the active moiety for the antiplatelet-aggregation effect and is rapidly hydrolyzed in water. After a 2 hr period for Lovenox effect the animals were given 100 ul platelets by IV tail vein injection, the platelets were allowed to circulate 30 min and the tail vein cut 1 cm from tip with a new scapula for each animal. Bleeding was measured by collecting drops of blood for exactly 5 min on pre-weighed blotter paper Whatmen-40. The blotters were then weighed and these weights were compared using unpaired t test statistics. […]
substance,measurement,setting,value
Polyethylene glycol [PEG-400],tolerated level,[1],0.4 % of body weight
same,"Weight of blood after tail vein cut, mean (X) of combined data","[2]; 1% PEG-400, room temp. storage 11-13 days, N = 9",X = 0.043 grams
same,activity of stored platelets,"[2]; 1% PEG-400, room temp. storage, day 11-13",active
same,clotting vs standard platelet storage condition,"[2]; 1% PEG-400, room temp., combined day 11 and day 13 data",significantly more clotting
same,"Weight of blood after tail vein cut, single animals","[2]; Mar. 11, 2014 group",.06 grams and .04 grams and .05 grams
same,"Weight of blood after tail vein cut, single animals","[2]; Mar. 13, 2014 group",.05 grams and .03 grams and .02 grams
same,"Weight of blood after tail vein cut, single animals","[2]; May 23, 2014 group",.04 grams (2×) and .06 grams
